The values that follow come from patent US9636418B2 (priority 2013, dated 2017).

“And” between values parts separate entries of the source, which are not always exact repeats. Identical values can stand only once. Like-named read-outs stand apart in the source and are kept apart here.

Common to all, as to experiment: cell-based
Assay [1] addresses T1, hNav1.4 (Homo sapiens, UniProt P35499). The note with it: for IC50: PatchXpress, read-out: PX hNav1.4 Tonic IC50; for Nav1.4/Nav1.7: ratio of PX IC50 values.
The target of a further assay is hNav1.7 (Homo sapiens, UniProt Q15858). It is filed as cell-based. The note with it: PatchXpress, tonic block; read-out: PX hNav1.7 Tonic IC50.
The next assay deals with hNav1.5 (Homo sapiens, UniProt Q14524). The note with it: for IC50: PatchXpress, read-out: PX hNav1.5 Tonic IC50; for Nav1.5/Nav1.7: ratio of PX IC50 values.
Chain of hNav1.5 (Q14524 whole entry): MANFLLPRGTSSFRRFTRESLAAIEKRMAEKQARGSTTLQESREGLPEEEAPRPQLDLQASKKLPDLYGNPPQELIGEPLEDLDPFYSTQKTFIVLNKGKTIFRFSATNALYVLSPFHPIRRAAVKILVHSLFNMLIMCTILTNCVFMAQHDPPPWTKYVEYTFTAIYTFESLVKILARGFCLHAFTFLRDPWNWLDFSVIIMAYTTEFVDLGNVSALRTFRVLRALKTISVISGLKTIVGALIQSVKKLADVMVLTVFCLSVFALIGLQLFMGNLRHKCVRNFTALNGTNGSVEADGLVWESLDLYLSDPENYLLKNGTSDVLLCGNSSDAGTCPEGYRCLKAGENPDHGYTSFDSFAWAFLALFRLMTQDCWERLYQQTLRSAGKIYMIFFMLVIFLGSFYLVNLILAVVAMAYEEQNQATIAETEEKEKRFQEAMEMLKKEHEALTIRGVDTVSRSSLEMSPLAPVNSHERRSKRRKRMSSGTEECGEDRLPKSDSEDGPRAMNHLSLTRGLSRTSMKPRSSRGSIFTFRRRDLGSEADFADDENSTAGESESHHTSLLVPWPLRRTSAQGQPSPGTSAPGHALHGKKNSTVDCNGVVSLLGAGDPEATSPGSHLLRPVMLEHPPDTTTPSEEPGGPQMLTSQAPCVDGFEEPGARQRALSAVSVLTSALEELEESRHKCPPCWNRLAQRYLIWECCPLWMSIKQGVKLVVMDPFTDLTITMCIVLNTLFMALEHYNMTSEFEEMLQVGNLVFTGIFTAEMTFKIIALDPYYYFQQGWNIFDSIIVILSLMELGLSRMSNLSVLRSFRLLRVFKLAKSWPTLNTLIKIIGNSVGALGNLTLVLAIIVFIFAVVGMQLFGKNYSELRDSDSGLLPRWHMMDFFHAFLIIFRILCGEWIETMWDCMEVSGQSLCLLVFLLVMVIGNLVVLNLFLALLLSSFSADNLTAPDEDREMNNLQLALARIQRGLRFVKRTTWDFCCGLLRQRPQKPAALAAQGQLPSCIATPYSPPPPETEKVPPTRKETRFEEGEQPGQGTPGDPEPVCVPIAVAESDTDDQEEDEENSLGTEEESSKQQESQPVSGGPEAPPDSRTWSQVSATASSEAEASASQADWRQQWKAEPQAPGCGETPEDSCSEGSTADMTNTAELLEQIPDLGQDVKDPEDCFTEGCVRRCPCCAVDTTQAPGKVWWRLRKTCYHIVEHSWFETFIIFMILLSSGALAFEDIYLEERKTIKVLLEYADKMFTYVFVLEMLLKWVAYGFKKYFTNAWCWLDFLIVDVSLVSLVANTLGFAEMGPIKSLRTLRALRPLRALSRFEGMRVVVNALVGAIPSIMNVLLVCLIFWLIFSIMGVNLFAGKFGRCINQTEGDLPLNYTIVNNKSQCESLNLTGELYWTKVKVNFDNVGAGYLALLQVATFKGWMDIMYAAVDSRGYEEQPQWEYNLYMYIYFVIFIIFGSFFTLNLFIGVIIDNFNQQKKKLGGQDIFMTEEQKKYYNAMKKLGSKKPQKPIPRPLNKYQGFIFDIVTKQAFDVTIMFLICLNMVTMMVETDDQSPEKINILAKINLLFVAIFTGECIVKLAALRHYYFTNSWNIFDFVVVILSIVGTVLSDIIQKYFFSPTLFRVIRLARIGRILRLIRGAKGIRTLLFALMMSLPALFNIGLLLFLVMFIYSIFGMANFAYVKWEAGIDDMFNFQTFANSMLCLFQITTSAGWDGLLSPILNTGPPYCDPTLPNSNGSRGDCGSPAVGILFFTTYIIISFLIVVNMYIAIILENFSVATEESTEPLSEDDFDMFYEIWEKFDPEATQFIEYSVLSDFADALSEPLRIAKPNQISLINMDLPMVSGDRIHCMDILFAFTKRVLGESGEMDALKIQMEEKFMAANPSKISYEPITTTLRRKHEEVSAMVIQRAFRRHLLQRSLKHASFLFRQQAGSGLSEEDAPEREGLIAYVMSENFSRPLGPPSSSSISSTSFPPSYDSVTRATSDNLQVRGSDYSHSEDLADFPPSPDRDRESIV
The target of assay [2] is T1, hNav1.4. As to conditions: ratio of IonWorks Quattro IC50 values. On the technique in general: In patch-clamp work, channel activity is measured electrically.
The mark [3] stands for this setting: * = at high concentrations compound would wash off slowly or not at all.

T1 sequence (P35499 whole entry): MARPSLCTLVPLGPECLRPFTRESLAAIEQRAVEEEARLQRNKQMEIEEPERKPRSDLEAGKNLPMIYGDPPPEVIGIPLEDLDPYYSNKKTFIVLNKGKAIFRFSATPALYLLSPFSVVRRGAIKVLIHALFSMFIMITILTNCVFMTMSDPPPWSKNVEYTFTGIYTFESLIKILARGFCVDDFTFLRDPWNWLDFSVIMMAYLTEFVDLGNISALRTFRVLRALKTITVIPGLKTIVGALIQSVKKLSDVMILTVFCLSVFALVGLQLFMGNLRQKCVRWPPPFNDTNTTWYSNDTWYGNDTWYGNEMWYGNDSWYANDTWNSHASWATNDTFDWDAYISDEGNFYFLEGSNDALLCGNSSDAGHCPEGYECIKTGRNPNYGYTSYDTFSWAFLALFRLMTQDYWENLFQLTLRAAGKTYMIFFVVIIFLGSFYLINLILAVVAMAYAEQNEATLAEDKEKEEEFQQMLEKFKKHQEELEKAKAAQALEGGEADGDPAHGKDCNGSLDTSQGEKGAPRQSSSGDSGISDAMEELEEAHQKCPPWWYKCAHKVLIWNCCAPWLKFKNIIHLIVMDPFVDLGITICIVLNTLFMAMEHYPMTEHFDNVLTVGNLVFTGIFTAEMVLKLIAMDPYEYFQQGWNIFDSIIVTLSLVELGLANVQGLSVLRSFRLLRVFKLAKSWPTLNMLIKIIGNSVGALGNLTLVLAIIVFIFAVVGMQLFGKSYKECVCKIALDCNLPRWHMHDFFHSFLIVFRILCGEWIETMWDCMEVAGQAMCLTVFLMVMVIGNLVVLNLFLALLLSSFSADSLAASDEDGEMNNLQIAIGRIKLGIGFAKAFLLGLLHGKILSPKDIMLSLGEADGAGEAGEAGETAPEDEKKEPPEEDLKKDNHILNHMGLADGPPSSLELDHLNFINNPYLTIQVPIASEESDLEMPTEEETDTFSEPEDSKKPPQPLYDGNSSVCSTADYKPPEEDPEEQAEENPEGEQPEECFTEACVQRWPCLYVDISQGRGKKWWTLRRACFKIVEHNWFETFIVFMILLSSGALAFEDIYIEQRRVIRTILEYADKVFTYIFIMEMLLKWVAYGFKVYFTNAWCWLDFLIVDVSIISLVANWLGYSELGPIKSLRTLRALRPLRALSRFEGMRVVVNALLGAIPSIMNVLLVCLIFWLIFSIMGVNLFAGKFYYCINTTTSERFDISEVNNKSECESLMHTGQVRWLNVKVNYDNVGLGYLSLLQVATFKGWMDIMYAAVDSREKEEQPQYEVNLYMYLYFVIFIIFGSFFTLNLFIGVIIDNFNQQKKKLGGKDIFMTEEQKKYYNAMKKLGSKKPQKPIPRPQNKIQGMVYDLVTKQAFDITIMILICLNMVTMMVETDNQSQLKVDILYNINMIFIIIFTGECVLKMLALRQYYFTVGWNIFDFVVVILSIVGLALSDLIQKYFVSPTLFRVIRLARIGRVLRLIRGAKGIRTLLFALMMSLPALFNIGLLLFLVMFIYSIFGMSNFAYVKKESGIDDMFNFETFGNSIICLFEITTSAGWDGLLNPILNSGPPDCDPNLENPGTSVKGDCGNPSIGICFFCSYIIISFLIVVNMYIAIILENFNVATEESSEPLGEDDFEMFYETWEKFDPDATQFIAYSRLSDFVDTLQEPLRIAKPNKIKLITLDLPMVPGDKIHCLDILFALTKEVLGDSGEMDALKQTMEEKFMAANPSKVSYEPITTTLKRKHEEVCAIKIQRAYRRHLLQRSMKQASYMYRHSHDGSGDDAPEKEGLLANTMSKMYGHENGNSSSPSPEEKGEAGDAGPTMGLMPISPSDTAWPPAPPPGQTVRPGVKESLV

The IC50 is the concentration at which inhibition is half-maximal. Consider `C#CC[C@H](N)C(=O)N[C@H]1CSSC[C@@H]2NC(=O)[C@@H]3CSSC[C@@H](C(=O)N[C@@H](CCCNC(=N)N)C(=O)N[C@@H](CCCCN)C(=O)N[C@@H](CCC(=O)O)C(=O)N[C@H](C(N)=O)[C@@H](C)CC)NC(=O)[C@H](Cc4c[nH]c5ccccc45)NC(=O)[C@H](CC(C)C)NC(=O)[C@H](CCCCN)NC(=O)[C@H](CSSC[C@H](NC(=O)[C@H]([C@@H](C)O)NC(=O)[C@H](Cc4c[nH]c5ccccc45)NC(=O)[C@H](CCCC)NC(=O)[C@H](Cc4c[nH]c5ccccc45)NC(=O)[C@H](CCCCN)NC(=O)[C@H](CCC(N)=O)NC1=O)C(=O)N[C@@H](CC(=O)O)C(=O)N[C@@H](CO)C(=O)N[C@@H](CCCCN)C(=O)N[C@@H](CCCNC(=N)N)C(=O)N[C@@H](C)C(=O)N3)NC(=O)[C@H](CCCNC(=N)N)NC(=O)[C@H](CC(C)C)NC(=O)CNC(=O)[C@H](CCC(=O)O)NC2=O` [compound 329], for which the results for the half-inhibitory concentration (IC50) on hNav1.4 [1] (tonic block), at hNav1.7 and on hNav1.5 (tonic block) were 149 nM, 0.269 nM and 4620 nM, respectively.

For the compound `CCCC[C@@H]1NC(=O)[C@H](Cc2c[nH]c3ccccc23)NC(=O)[C@H](CCCCN)NC(=O)[C@H](CCC(N)=O)NC(=O)[C@@H](NC(=O)[C@@H](N)Cc2ccc(O)cc2)CSSC[C@@H]2NC(=O)[C@@H]3CSSC[C@@H](C(=O)N[C@@H](CCCNC(=N)N)C(=O)N[C@@H](CCCCN)C(=O)N[C@H](C(=O)N[C@H](C(N)=O)[C@@H](C)CC)[C@@H](C)CC)NC(=O)[C@H](Cc4c[nH]c5ccccc45)NC(=O)[C@H](CC(C)C)NC(=O)[C@H](CCCCN)NC(=O)[C@H](CSSC[C@H](NC(=O)[C@H]([C@@H](C)O)NC(=O)[C@H](Cc4c[nH]c5ccccc45)NC1=O)C(=O)N[C@@H](CC(=O)O)C(=O)N[C@@H](Cc1cn(CCCOCCOCCOCCOCCOCCOCCOCCOCCOCCOCCN)nn1)C(=O)N[C@@H](CCCCN)C(=O)N[C@@H](CCCNC(=N)N)C(=O)N[C@@H](C)C(=O)N3)NC(=O)[C@H](CCCNC(=N)N)NC(=O)[C@H](CC(C)C)NC(=O)CNC(=O)[C@H](CCC(=O)O)NC2=O` [compound 256], the Nav1.4/Nav1.7 is recorded as 4 on hNav1.4 [2] and 3 on hNav1.4 [1]. Further, the Nav1.5/Nav1.7 at hNav1.5 was 200.

For `C#CC[C@H](N)C(=O)N[C@@H](Cc1ccc(O)cc1)C(=O)N[C@H]1CSSC[C@@H]2NC(=O)[C@@H]3CSSC[C@@H](C(=O)N[C@@H](CCCNC(=N)N)C(=O)N[C@@H](CCCCN)C(=O)N[C@H](C(=O)N[C@H](C(N)=O)[C@@H](C)CC)[C@@H](C)CC)NC(=O)[C@H](Cc4c[nH]c5ccccc45)NC(=O)[C@H](CC(C)C)NC(=O)[C@H](CCCCN)NC(=O)[C@H](CSSC[C@H](NC(=O)[C@H]([C@@H](C)O)NC(=O)[C@H](Cc4c[nH]c5ccccc45)NC(=O)[C@H](CCCC)NC(=O)[C@H](Cc4c[nH]c5ccccc45)NC(=O)[C@H](CCCCN)NC(=O)[C@H](CCC(N)=O)NC1=O)C(=O)N[C@@H](CC(=O)O)C(=O)N[C@@H](CO)C(=O)N[C@@H](CCCCN)C(=O)N[C@@H](CCCNC(=N)N)C(=O)N[C@@H](C)C(=O)N3)NC(=O)[C@H](CCC(=O)O)NC(=O)[C@H](CC(C)C)NC(=O)CNC(=O)[C@H](CCC(=O)O)NC2=O` [compound 297], the IC50 on hNav1.4 [1] (tonic block) came to 804 nM; on hNav1.7 it was 1.87 nM; on hNav1.5 (tonic block), 1200 nM.

As for `CCCC[C@@H]1NC(=O)[C@H](Cc2c[nH]c3ccccc23)NC(=O)[C@H](CCCCN)NC(=O)[C@H](CCC(N)=O)NC(=O)[C@@H](NC(=O)[C@H](Cc2ccc(O)cc2)NC(=O)[C@H](N)CC(C)C)CSSC[C@@H]2NC(=O)[C@@H]3CSSC[C@@H](C(=O)N[C@@H](CCCNC(=N)N)C(=O)N[C@@H](CCCCN)C(=O)N[C@H](C(=O)N[C@H](C(N)=O)[C@@H](C)CC)[C@@H](C)CC)NC(=O)[C@H](Cc4c[nH]c5ccccc45)NC(=O)[C@H](CC(C)C)NC(=O)[C@H](CCCCN)NC(=O)[C@H](CSSC[C@H](NC(=O)[C@H]([C@@H](C)O)NC(=O)[C@H](Cc4c[nH]c5ccccc45)NC1=O)C(=O)N[C@@H](CC(=O)O)C(=O)N[C@@H](CO)C(=O)N[C@@H](CCCCN)C(=O)N[C@@H](CCCNC(=N)N)C(=O)N[C@@H](C)C(=O)N3)NC(=O)[C@H](CCCNC(=N)N)NC(=O)[C@H](CC(C)C)NC(=O)CNC(=O)[C@H](CCC(=O)O)NC2=O` [compound 373], the concentration for half-maximal inhibition (IC50) stood at 28.7 nM at hNav1.4 [1] (setting [3]) and 410 nM on hNav1.5 (setting [3]). For the same compound, the Nav1.4/Nav1.7 on hNav1.4 [1] stood at 190.

Regarding `CC[C@H](C)[C@H](NC(=O)[C@H](CCCCN)NC(=O)[C@H](CCCNC(=N)N)NC(=O)[C@@H]1CSSC[C@@H]2NC(=O)[C@H](C)NC(=O)[C@H](CCCNC(=N)N)NC(=O)[C@H](CCCCN)NC(=O)[C@H](CO)NC(=O)[C@H](CC(=O)O)NC(=O)[C@@H]3CSSC[C@H](NC(=O)[C@H](CCCNC(=N)N)NC(=O)[C@H](CC(C)C)NC(=O)CNC(=O)[C@H](CCC(=O)O)NC(=O)[C@H](CSSC[C@H](NC(=O)[C@@H](N)Cc4ccc(O)cc4)C(=O)N[C@@H](CCC(N)=O)C(=O)N[C@@H](CCCCN)C(=O)N[C@@H](Cc4c[nH]c5ccccc45)C(=O)N[C@@H](CCSC)C(=O)N[C@@H](Cc4c[nH]c5ccccc45)C(=O)N[C@@H]([C@@H](C)O)C(=O)N3)NC2=O)C(=O)N[C@@H](CCCCN)C(=O)N[C@@H](CC(C)C)C(=O)N[C@@H](Cc2c[nH]c3ccccc23)C(=O)N1)C(=O)N[C@@H](CCC(=O)O)C(N)=O` [compound 70], the IC50 on hNav1.4 [1] (setting [3]) is 11300 nM; at hNav1.5 (setting [3]), over 10000 nM. Also, on hNav1.4 [1], the Nav1.4/Nav1.7 worked out at 43. In addition, the Nav1.5/Nav1.7 on hNav1.5 is on record as over 38.

On to `C#CC[C@@H]1NC(=O)[C@@H]2CSSC[C@H](NC(=O)[C@H](Cc3ccc(O)cc3)NC(=O)[C@@H](N)CC#N)C(=O)N[C@@H](CCC(N)=O)C(=O)N[C@@H](CCCCN)C(=O)N[C@@H](Cc3c[nH]c4ccccc34)C(=O)N[C@@H](CCCC)C(=O)N[C@@H](Cc3c[nH]c4ccccc34)C(=O)N[C@@H]([C@@H](C)O)C(=O)N[C@H]3CSSC[C@H](NC(=O)[C@H](CCCNC(=N)N)NC(=O)[C@H](CC(C)C)NC(=O)CNC1=O)C(=O)N[C@@H](CCCCN)C(=O)N[C@@H](CC(C)C)C(=O)N[C@@H](Cc1c[nH]c4ccccc14)C(=O)N[C@H](C(=O)N[C@@H](CCCNC(=N)N)C(=O)N[C@@H](CCCCN)C(=O)N[C@@H](CCC(=O)O)C(=O)N[C@H](C(N)=O)[C@@H](C)CC)CSSC[C@H](NC(=O)[C@H](C)NC(=O)[C@H](CCCNC(=N)N)NC(=O)[C@H](CCCCN)NC(=O)[C@H](CO)NC(=O)[C@H](CC(=O)O)NC3=O)C(=O)N2` [compound 395], for which the IC50 at hNav1.4 [1] (tonic block) is 62.5 nM and 212 nM; at hNav1.5 (tonic block), 710 nM.

For the compound `CCCC[C@@H]1NC(=O)[C@H](Cc2c[nH]c3ccccc23)NC(=O)[C@H](CCCCN)NC(=O)[C@H](CCC(N)=O)NC(=O)[C@@H](NC(=O)[C@H](Cc2ccc(O)cc2)NC(=O)[C@@H](N)CC(C)C)CSSC[C@@H]2NC(=O)[C@@H]3CSSC[C@@H](C(=O)N[C@@H](CCCNC(=N)N)C(=O)N[C@@H](CCCCN)C(=O)N[C@H](C(=O)N[C@H](C(N)=O)[C@@H](C)CC)[C@@H](C)CC)NC(=O)[C@H](Cc4c[nH]c5ccccc45)NC(=O)[C@H](CC(C)C)NC(=O)[C@H](CCCCN)NC(=O)[C@H](CSSC[C@H](NC(=O)[C@H]([C@@H](C)O)NC(=O)[C@H](Cc4c[nH]c5ccccc45)NC1=O)C(=O)N[C@@H](CC(=O)O)C(=O)N[C@@H](CO)C(=O)N[C@@H](CCCCN)C(=O)N[C@@H](CCCNC(=N)N)C(=O)N[C@@H](C)C(=O)N3)NC(=O)[C@H](CCCNC(=N)N)NC(=O)[C@H](CC(C)C)NC(=O)CNC(=O)[C@H](CCC(=O)O)NC2=O` [compound 361], the Nav1.4/Nav1.7 at hNav1.4 [1] came out at 0. In addition, the Nav1.5/Nav1.7 at hNav1.5 stood at 0.

With `CCCC[C@@H]1NC(=O)[C@H](Cc2c[nH]c3ccccc23)NC(=O)[C@H](CCCCN)NC(=O)[C@H](CCC(N)=O)NC(=O)[C@@H](NC(=O)[C@H](Cc2ccc(O)cc2)NC(=O)[C@@H](N)CCC)CSSC[C@@H]2NC(=O)[C@@H]3CSSC[C@@H](C(=O)N[C@@H](CCCNC(=N)N)C(=O)N[C@@H](CCCCN)C(=O)N[C@H](C(=O)N[C@H](C(N)=O)[C@@H](C)CC)[C@@H](C)CC)NC(=O)[C@H](Cc4c[nH]c5ccccc45)NC(=O)[C@H](CC(C)C)NC(=O)[C@H](CCCCN)NC(=O)[C@H](CSSC[C@H](NC(=O)[C@H]([C@@H](C)O)NC(=O)[C@H](Cc4c[nH]c5ccccc45)NC1=O)C(=O)N[C@@H](CC(=O)O)C(=O)N[C@@H](CO)C(=O)N[C@@H](CCCCN)C(=O)N[C@@H](CCCNC(=N)N)C(=O)N[C@@H](C)C(=O)N3)NC(=O)[C@H](CCCNC(=N)N)NC(=O)[C@H](CC(C)C)NC(=O)CNC(=O)[C@H](CCC(=O)O)NC2=O` [compound 369], the results for the IC50 at hNav1.4 [1] (setting [3]) and on hNav1.5 (setting [3]) were 11.6 nM and 490 nM, respectively.

As for `C#CC[C@H](N)C(=O)NCCCC[C@@H]1NC(=O)[C@H](CCCNC(=N)N)NC(=O)[C@H](CCCCN)NC(=O)[C@H](CO)NC(=O)[C@H](CC(=O)O)NC(=O)[C@@H]2CSSC[C@@H]3NC(=O)[C@H](CCCNC(=N)N)NC(=O)[C@H](CC(C)C)NC(=O)CNC(=O)[C@H](CCC(=O)O)NC(=O)[C@H](CSSC[C@H](NC(=O)[C@H](Cc4ccc(O)cc4)NC(=O)[C@@H](N)CC#N)C(=O)N[C@@H](CCC(N)=O)C(=O)N[C@@H](CCCCN)C(=O)N[C@@H](Cc4c[nH]c5ccccc45)C(=O)N[C@@H](CCCC)C(=O)N[C@@H](Cc4c[nH]c5ccccc45)C(=O)N[C@@H]([C@@H](C)O)C(=O)N2)NC(=O)[C@H](CSSC[C@@H](C(=O)N[C@@H](CCCNC(=N)N)C(=O)N[C@@H](CCCCN)C(=O)N[C@@H](CCC(=O)O)C(=O)N[C@H](C(N)=O)[C@@H](C)CC)NC(=O)[C@H](Cc2c[nH]c4ccccc24)NC(=O)[C@H](CC(C)C)NC(=O)[C@H](CCCCN)NC3=O)NC1=O` [compound 392], the IC50 on hNav1.4 [1] (tonic block) is 86.1 nM and 124 nM; at hNav1.5 (tonic block) it was 920 nM and 1450 nM and 2160 nM.
